In ChEMBL document CHEMBL1201862, “PubChem BioAssay data set” (2004):
Calls of active or inactive are those of the source.

What was measured:
Protein Rev = Protein Rev (Human immunodeficiency virus type 1 group M subtype B (isolate HXB2)(HIV-1), UniProt P04618); experiment: blockers of HIV Rev/RRE RNA complex – biochemical, fluorescence polarization, HIV-1, dose response (AID 434976); design: species or system Human immunodeficiency virus 1
[1] = biological target: Female germline-specific tumor suppressor gld-1 (Caenorhabditis elegans, UniProt Q17339); experiment: blockers of GLD-1/TGE RNA complex formation – biochemical, fluorescence polarization, C. elegans, dose response (AID 2802);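 note: fluorescence polarization of labeled TGE RNA bound by purified gld-1 protein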
Fibrinogen beta chain [2] = biological target: T1, Fibrinogen beta chain (Homo sapiens, UniProt P02675); experiment: Fluorescence polarization-based biochemical high throughput dose response assay to identify inhibitors that disrupt the binding of a cyclic peptide (Tn6) to the fibrin proteolytic product D-Dimer and fragment E complex [DD(E )].
Fibrinogen beta chain [3] = biological target: T1, Fibrinogen beta chain; experiment: Fluorescence polarization-based biochemical high throughput dose response assay to identify inhibitors that disrupt the binding of a cyclic peptide (Tn7) to the fibrin proteolytic product D-Dimer and fragment E complex [DD(E )].
ORF 73 = ORF 73 (Human herpesvirus 8, UniProt O40947); experiment: KSHV LANA DNA-binding disruption – biochemical, fluorescence polarization, cherry-picked samples, dose response (AID 504725); design: species or system Human gammaherpesvirus 8;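 note: fluorescence polarization of a labeled DNA duplex reporting LANA DNA binding; potency is for inhibitors that block LANA binding to the DNA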
HeLa = experiment: viability loss in HeLa cells – cell-based, 24 h, cherry-picked samples, cytotoxicity control, dose response (AID 504726); format: functional; details: Homo sapiens;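 note: potency for cytotoxicity as loss of luminescence signal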
[4] = biological target: Envelope glycoprotein gp160 (Human immunodeficiency virus 1, UniProt Q6QLK5); experiment: cell-free HIV fusion peptide-binding blockers – biochemical, uHTS, fluorescence dequenching, […] (AID 1986)
[5] = test system: Streptococcus sp. 'group A'; experiment: Streptococcus pyogenes SK(-)GAS viability under kanamycin – luminescence, BacTiterGlo, confirmation, counter-screen for streptokinase expression inhibitor project, dose response (AID 1900); format: functional, organism-based
[6] = CCR5-tropic HIV-1 fusion blockers – cell-based, CCR5-tropic Env, dose response (AID 2279); format: functional
Streptococcus = experiment: GAS UMAA2166 growth inhibition – luminescence, BacTiterGlo, counter-screen for streptokinase expression inhibitor project, dose response (AID 1915); format: functional, organism-based;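 note: potency for reduction of bacterial viability or growth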
[7] = CellTiter-Glo luminescence survival assay, SW480 colon tumor line, concentration-response curve, half-maximal inhibitory concentration (AID 1117338); format: functional
[8] = RKO cell viability reduction, dose response, CellTiter-Glo luminescence (AID 1117322); format: functional
[9] = cytotoxicity toward HCT116 cells – cell-based, CellTiter-Glo luminescence, IC50, dose response (AID 1117332); format: functional; details: HCT-116
[10] = SNU-C1 cell viability reduction, dose response, CellTiter-Glo luminescence (AID 1117323); format: functional, cell-based
[11] = glucagon-like peptide-1 release potency in STC-1, concentration-response, half-maximal inhibitory concentration in the STC-1 line (AID 1117345); format: functional, cell-based
[12] = cytotoxicity toward Colo320 cells – cell-based, CellTiter-Glo luminescence, IC50, dose response (AID 1117334); format: functional; details: COLO 320
[13] = cytotoxicity toward HT-29 cells – cell-based, CellTiter-Glo luminescence, IC50, dose response (AID 1117330); format: functional
[14] = Reduced DLD-1 viability, concentration-response, CellTiter-Glo luminescence (AID 1117352); format: functional
[15] = Potency on glucagon-like peptide 1 release, dose-response in NCI-H716 cell line, half maximal inhibitory concentration (AID 1117344); format: functional, cell-based
[16] = biological target: T2, Mannose-6-phosphate isomerase (Homo sapiens, UniProt P34949); experiment: MPI enzyme activity inhibition – biochemical, fluorescence intensity, coupled assay, primary screen (AID 1209)
T2 sequence (P34949 whole entry): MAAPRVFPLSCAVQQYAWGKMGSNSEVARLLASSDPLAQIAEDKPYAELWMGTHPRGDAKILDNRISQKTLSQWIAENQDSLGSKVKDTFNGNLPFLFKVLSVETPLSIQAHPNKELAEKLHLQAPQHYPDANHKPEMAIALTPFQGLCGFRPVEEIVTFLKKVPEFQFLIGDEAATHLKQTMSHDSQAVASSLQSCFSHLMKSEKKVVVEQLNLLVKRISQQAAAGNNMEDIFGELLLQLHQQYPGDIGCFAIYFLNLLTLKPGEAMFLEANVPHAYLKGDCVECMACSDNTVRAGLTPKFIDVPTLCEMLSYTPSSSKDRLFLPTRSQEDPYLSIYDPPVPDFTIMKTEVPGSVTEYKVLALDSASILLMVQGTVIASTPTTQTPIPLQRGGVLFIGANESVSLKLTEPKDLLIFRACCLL

[17] = Trypanosoma cruzi growth suppression in host cells – NIH3T3 host cells, beta-gal luminescence, confirmation (AID 2044); format: functional, cell-based;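 note: intracellular parasites grown in NIH/3T3 mouse fibroblasts as host cells; luminescent beta-galactosidase reporter signal from transgenic T. cruzi replicating inside host cells; inhibitors lower the luminescence signal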
[18] = NIH3T3 cell viability loss – ATP luminescence, mouse fibroblasts, counter-screen, dose response (AID 2010); format: functional, cell-based;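 note: cells exposed to compound for about 90 hours before reading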
[19] = biological target: T2, Mannose-6-phosphate isomerase; experiment: phosphomannose isomerase inhibition – biochemical, fluorescence intensity, confirmation (AID 1535)
Phosphomannomutase 2 = Phosphomannomutase 2 (Homo sapiens, UniProt O15305); experiment: Counter screen SAR assay for PMM2 inhibitors via a fluorescence intensity assay. [Related pubchem assays (depositor defined):AID1545, AID1574]
[20] = biological target: Eukaryotic translation initiation factor 4E (Mus musculus, UniProt P63073); experiment: blockers of eIF4G binding by eIF4E – biochemical, TR-FRET, dose response (AID 855); format: functional;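 note: potency for disrupting eIF4E binding to eIF4GI seen as loss of FRET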
[21] = biological target: DNA dC->dU-editing enzyme APOBEC-3G (Homo sapiens, UniProt Q9HC16); experiment: Dose Response confirmation of small molecule APOBEC3G DNA Deaminase Inhibitors via a fluorescence-based single-stranded DNA deaminase assay. [Related pubchem assays (depositor defined):AID493012, AID493028]; format: functional
Sequence of DNA dC->dU-editing enzyme APOBEC-3G (Q9HC16 whole entry): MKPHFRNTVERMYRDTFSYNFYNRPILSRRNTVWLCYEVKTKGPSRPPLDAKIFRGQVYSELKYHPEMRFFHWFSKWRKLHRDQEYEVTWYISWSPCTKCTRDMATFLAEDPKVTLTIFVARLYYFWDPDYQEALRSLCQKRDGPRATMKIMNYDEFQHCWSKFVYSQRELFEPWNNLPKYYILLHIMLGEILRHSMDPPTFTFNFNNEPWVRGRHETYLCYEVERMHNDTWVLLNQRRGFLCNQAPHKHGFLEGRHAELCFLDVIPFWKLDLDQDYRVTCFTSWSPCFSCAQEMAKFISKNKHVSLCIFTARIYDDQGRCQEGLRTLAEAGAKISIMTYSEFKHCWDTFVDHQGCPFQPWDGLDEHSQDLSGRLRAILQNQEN

T1 sequence (P02675 whole entry, the tested form may be a part): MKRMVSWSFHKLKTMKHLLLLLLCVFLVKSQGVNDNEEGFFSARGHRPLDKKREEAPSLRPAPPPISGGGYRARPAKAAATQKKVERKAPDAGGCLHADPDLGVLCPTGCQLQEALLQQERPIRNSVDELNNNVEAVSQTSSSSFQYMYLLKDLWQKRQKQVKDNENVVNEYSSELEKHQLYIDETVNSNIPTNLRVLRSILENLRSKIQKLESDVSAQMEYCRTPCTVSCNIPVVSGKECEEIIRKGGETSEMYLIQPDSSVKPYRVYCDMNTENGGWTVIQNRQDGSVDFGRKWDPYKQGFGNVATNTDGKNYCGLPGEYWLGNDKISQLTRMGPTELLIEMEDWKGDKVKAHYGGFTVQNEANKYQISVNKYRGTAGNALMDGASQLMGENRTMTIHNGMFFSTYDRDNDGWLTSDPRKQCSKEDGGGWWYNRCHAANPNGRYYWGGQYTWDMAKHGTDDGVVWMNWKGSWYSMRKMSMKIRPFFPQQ
Sequence of Phosphomannomutase 2 (O15305 whole entry): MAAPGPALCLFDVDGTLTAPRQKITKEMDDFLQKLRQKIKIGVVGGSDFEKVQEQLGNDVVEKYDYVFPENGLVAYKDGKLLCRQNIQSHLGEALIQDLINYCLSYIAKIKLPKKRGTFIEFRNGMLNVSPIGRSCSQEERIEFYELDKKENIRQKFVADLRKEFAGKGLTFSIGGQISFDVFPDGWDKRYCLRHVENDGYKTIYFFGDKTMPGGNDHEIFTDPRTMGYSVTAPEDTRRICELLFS
Sequence of Protein Rev (P04618 whole entry): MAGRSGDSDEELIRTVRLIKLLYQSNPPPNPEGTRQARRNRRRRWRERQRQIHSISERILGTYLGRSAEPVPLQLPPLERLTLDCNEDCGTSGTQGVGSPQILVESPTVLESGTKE
Sequence of Female germline-specific tumor suppressor gld-1 (Q17339 whole entry, the tested form may be a part): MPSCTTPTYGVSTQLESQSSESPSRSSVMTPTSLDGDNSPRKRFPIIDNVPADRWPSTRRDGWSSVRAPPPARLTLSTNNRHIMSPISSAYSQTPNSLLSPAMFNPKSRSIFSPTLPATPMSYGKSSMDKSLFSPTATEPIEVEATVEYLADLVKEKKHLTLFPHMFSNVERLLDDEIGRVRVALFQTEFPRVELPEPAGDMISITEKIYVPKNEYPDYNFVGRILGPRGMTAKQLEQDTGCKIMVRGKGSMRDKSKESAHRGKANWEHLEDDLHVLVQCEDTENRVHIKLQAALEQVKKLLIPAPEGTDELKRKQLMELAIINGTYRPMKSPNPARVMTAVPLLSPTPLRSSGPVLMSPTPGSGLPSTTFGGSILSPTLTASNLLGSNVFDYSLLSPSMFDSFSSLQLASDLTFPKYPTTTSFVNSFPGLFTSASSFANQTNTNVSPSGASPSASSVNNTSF
Sequence of Envelope glycoprotein gp160 (Q6QLK5 whole entry, the tested form may be a part): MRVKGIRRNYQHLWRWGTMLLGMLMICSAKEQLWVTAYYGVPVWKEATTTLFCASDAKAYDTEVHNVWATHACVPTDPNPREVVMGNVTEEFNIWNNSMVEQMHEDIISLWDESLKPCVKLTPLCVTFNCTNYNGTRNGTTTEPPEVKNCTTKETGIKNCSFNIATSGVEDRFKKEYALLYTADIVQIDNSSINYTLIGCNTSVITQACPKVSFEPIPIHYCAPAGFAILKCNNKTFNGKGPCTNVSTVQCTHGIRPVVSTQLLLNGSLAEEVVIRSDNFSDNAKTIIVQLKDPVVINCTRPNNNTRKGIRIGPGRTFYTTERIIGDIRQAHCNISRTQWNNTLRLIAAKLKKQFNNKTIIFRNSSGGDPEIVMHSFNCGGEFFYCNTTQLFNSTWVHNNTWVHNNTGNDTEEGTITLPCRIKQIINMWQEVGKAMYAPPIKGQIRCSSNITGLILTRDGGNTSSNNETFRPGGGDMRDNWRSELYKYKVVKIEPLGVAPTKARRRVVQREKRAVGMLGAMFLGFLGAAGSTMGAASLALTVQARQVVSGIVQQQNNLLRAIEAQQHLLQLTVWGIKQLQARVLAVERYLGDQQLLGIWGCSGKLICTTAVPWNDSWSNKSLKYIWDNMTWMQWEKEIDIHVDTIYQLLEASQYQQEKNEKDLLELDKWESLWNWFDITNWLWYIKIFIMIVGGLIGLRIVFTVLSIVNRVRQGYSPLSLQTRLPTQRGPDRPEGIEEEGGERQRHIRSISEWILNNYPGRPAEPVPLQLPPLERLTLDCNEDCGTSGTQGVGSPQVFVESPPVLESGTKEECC
Sequence of ORF 73 (O40947 whole entry): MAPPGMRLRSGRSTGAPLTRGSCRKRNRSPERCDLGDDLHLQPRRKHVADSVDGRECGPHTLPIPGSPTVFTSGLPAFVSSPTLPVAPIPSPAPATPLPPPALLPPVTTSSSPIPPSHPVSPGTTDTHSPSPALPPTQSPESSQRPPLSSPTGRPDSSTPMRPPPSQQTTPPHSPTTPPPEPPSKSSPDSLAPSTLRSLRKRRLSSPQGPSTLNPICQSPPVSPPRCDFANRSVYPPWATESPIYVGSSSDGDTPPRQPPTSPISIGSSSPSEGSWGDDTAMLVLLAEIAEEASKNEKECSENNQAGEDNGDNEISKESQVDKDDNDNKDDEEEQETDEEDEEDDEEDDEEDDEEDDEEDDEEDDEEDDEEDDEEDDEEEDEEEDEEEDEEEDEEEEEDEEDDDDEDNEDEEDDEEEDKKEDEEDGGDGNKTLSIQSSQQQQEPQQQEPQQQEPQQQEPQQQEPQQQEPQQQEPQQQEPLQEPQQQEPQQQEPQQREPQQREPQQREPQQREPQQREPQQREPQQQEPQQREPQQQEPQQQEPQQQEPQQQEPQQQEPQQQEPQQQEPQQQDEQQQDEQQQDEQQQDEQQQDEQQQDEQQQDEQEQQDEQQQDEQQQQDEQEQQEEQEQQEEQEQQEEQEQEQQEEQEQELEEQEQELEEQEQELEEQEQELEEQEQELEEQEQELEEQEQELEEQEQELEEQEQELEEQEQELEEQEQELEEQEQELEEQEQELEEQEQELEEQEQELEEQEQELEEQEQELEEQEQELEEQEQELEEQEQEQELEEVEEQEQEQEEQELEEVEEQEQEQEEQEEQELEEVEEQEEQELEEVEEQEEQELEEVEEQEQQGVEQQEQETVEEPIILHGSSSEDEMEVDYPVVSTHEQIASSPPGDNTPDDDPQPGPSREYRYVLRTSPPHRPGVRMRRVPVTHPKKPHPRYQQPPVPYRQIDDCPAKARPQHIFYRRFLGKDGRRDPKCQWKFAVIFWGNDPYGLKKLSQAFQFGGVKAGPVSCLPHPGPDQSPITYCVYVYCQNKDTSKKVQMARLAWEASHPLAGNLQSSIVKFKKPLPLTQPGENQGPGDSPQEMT
Sequence of Eukaryotic translation initiation factor 4E (P63073 whole entry): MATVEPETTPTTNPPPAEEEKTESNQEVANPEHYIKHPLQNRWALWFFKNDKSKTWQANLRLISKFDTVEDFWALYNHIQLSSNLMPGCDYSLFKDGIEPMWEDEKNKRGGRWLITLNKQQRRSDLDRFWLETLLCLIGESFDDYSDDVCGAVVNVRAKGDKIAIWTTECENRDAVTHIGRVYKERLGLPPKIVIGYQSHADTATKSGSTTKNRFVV

With COC(=O)c1ccc2c(c1)SC1=C(O)CCCC1=N2 the IC50 (Protein Rev) was > 75.4 µM (not active), the IC50 [1] was 6.11 µM (active) and the IC50 (Fibrinogen beta chain [2]) was 17.9 µM (inactive). The IC50 (Fibrinogen beta chain [3]) was > 83.3 µM (inactive).
In the case of O=C(Cn1nc(Cc2ccncc2)c2ccccc2c1=O)N1CCN(C(=O)c2ccco2)CC1, the AC50 (ORF 73) is reported as 11.4 µM (active).
In the case of CC(=O)N/C(=C/c1ccc(OS(=O)(=O)c2ccc(C)cc2)cc1)C(=O)Nc1ccc(C(=O)O)cc1, the AC50 (HeLa) is reported as 132 µM (active).
For O=C(Nc1ccc(Oc2ccc(Cl)cc2)c(Cl)c1)c1cc(I)cc(I)c1O [RAFOXANIDE], the IC50 [4] was 19.7 µM (active), the EC50 [5] was 80 nM (active) and the IC50 [6] was 7.36 µM (active). The EC50 (Streptococcus) was 137 nM (active), the IC50 [7] was 10.8 nM (active) and the IC50 [8] was 30.3 nM (active). For the same compound, the IC50 [9] was 16.9 nM (active), the IC50 [10] was 14.3 nM (active) and the IC50 [11] was 1.3 µM (active). The IC50 [12] was 54 nM (active), the IC50 [13] was 9.5 nM (active) and the IC50 [14] was 8.4 nM (active). For the same compound, the IC50 [15] was > 40 µM (inactive).
In the case of COc1ccc2nc(N=C(S)N(C)C)sc2c1, the IC50 [16] is reported as 8.33 µM (active), the EC50 [17] is reported as 2.03 µM (active) and the EC50 [18] is reported as > 60 µM (inconclusive). For the same compound, the IC50 [19] was 46.1 µM (active), the IC50 (Phosphomannomutase 2) was > 100 µM (inactive) and the IC50 [20] was > 64 µM (inactive). For the same compound, the IC50 [21] was 40.8 µM (active).
